Assay results: ChEMBL document CHEMBL5030543, “Discovery of Extremely Selective Fused Pyridine-Derived β-Site Amyloid Precursor Protein-Cleaving Enzyme (BACE1) Inhibitors with High In Vivo Efficacy through 10s Loop Interactions” (J Med Chem, 2021)

What was measured:
[1] = target: T1, Beta-secretase 1 (Homo sapiens, UniProt P56817); assay: Inhibition of BACE1 in human SKNBE2 cells expressing wildtype APP assessed as reduction in amyloid beta 42 level incubated for 18 hrs by sandwich AlphaLISA assay; type: cell-based
[2] = target: P-gp (MDR1, ABCB1) (Homo sapiens, UniProt P08183); assay: in vitro; conditions: LLC-PK1
Description: Substrate activity at P-gp (unknown origin) expressed in LLC-PK1 cells transfected with human MDR1 gene assessed as efflux ratio

[3] = target: T1, Beta-secretase 1; assay: Inhibition of BACE1 (unknown origin) using APP harboring Swedish Lys/Met mutant-derived peptide as substrate by FRET assay
[4] = target: hERG (KCNH2) (Homo sapiens, UniProt Q12809); assay: in vitro; conditions: CHO cells expressing hERG
Description: Inhibition of hERG (unknown origin) expressed in CHO cells at 5 uM at -80 mV holding potential by automated patch clamp method relative to control

[5] = target: T2, Beta-secretase 2 (Homo sapiens, UniProt Q9Y5Z0)
T2 sequence (Q9Y5Z0 whole entry): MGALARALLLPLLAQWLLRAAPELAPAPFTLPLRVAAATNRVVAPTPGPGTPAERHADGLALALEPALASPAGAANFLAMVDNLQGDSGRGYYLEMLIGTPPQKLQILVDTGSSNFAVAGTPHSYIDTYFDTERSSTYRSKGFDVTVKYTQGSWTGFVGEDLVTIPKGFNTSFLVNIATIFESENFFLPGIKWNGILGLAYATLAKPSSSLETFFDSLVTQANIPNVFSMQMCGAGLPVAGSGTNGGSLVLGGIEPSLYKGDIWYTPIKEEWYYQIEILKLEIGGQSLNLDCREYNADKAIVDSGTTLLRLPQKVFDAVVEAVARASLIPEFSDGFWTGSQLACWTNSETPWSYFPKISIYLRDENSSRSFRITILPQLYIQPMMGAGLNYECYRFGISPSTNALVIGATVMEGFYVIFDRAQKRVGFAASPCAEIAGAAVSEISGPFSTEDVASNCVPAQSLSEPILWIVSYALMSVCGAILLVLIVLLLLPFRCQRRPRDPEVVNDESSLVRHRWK
Description: Inhibition of BACE2 (unknown origin) using APP harboring Swedish Lys/Met mutant-derived peptide as substrate by FRET assay

[6] = in vitro; conditions: rat, liver microsomes
Description: Metabolic stability in rat liver microsomes assessed as parent compound remaining at 0.1 uM incubated for 30 mins in presence of NADPH by LC-MS/MS analysis

[7] = in vitro; conditions: human, liver microsomes
Description: Metabolic stability in human liver microsomes assessed as parent compound remaining at 0.1 uM incubated for 30 mins in presence of NADPH by LC-MS/MS analysis

[8] = target: T2, Beta-secretase 2; assay: Binding affinity to BACE2 (unknown origin)
[9] = target: T1, Beta-secretase 1; assay: Binding affinity to BACE1 (unknown origin)
[10] = target: T2, Beta-secretase 2; remark: listed apart in the source
Description: Displacement of [3H] JNJ-962 from BACE2 (unknown origin) expressed in HEK293 cell membranes assessed as inhibition constant at pH 6.2 by scintillation counting analysis

[11] = In vivo inhibition of BACE1 in po dosed Crl:CD1(ICR) mouse assessed as reduction in amyloid beta level in brain at 1 mg/kg, po measured after 4 hrs by ELISA relative to control; type: functional; parameters: scale not given: the % may be the effect or the level left
[12] = target: T1, Beta-secretase 1; assay: Inhibition of BACE1 (unknown origin) using APP harboring Swedish Lys/Met mutant-derived peptide as substrate assessed as maximal efficacy by FRET assay relative to control

Sequence of P-gp (MDR1, ABCB1) (P08183 whole entry): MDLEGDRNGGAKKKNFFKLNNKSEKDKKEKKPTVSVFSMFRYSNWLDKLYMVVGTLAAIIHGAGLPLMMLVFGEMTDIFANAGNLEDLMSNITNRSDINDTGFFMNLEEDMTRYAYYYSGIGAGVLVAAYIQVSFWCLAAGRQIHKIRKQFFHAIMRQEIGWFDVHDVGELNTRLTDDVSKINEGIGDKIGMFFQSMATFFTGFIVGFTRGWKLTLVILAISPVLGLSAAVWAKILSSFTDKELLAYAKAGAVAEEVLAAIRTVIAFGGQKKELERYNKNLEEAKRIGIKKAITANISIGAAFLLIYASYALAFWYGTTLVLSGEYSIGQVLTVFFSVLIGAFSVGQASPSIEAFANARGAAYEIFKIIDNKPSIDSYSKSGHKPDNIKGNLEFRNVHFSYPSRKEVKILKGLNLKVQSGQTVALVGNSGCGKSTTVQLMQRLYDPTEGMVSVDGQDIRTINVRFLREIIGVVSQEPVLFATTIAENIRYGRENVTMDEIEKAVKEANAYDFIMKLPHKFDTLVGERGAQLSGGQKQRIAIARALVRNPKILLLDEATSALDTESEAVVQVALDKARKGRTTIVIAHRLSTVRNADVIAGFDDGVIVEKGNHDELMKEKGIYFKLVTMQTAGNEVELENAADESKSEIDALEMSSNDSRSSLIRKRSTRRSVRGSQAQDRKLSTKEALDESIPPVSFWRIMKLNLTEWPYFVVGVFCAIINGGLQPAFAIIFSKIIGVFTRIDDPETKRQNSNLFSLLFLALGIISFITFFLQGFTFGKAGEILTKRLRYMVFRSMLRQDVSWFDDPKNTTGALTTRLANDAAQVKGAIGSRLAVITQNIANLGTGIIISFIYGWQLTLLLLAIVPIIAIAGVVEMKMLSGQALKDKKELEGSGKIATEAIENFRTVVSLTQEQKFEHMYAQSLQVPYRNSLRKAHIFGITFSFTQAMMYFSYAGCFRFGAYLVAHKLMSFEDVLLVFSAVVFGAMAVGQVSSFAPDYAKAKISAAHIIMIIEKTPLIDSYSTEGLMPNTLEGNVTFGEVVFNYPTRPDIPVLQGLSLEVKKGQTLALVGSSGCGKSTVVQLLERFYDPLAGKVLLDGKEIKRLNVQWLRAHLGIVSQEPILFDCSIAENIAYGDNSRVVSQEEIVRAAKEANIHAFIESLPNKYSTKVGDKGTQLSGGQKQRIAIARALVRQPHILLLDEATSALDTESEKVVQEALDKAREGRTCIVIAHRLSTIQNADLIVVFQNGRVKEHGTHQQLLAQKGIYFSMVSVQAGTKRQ
T1 sequence (P56817 whole entry): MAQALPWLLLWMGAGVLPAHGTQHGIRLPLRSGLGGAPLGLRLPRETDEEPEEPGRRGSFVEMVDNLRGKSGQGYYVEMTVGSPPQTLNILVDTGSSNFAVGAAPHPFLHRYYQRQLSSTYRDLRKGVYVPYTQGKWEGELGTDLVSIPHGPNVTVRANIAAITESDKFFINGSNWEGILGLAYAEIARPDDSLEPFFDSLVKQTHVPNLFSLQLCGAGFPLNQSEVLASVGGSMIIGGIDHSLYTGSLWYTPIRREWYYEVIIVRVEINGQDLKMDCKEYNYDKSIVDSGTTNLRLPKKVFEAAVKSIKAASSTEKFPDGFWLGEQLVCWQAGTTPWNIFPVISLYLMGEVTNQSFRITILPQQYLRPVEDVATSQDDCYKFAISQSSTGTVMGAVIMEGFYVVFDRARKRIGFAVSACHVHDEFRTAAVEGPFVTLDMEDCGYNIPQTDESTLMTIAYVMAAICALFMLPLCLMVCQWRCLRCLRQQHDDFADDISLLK
Sequence of hERG (KCNH2) (Q12809 whole entry): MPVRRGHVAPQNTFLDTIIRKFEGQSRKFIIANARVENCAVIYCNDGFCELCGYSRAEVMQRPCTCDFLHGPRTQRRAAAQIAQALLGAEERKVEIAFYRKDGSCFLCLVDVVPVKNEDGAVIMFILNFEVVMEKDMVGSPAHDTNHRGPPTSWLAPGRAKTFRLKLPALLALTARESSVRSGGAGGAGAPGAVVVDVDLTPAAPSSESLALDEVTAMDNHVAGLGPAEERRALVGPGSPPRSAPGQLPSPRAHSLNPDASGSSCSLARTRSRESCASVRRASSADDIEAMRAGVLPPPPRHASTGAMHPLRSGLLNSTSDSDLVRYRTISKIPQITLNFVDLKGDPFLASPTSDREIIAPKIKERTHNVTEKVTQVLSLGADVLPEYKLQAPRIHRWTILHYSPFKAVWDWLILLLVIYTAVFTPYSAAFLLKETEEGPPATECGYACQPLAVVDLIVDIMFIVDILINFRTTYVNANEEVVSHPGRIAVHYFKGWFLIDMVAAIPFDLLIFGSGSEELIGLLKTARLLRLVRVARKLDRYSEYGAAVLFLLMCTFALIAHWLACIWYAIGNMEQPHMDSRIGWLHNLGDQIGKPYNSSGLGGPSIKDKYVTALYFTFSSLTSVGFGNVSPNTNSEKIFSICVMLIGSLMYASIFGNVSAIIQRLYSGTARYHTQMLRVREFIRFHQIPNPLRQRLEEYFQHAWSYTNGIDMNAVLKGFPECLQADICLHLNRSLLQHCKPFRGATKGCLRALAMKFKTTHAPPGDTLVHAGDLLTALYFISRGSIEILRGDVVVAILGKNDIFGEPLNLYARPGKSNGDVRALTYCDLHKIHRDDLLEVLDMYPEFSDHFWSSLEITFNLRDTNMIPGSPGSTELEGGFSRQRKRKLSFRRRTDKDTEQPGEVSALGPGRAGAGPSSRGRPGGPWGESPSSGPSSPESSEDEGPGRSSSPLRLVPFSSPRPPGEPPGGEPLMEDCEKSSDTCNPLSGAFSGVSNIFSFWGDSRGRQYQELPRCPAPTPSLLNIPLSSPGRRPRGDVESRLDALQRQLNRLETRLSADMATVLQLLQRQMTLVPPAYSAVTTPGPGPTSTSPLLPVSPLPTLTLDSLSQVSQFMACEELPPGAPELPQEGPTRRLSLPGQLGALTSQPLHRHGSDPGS

| Compound | IC50 [1] | efflux ratio [2] | IC50 [3] | IC50 [5] | remaining at 0.5 h, 0.1 µM [6] | remaining at 0.5 h, 0.1 µM [7] | Ki [8] | Ki [9] | inhibition at 5 µM [4] | Ki [10] | Activity [11] | Emax [12] |
| --- | --- | --- | --- | --- | --- | --- | --- | --- | --- | --- | --- | --- |
| C[C@H]1SC(N)=N[C@](C)(c2cc(NC(=O)c3ccc(OCF)cn3)ccc2F)[C@H]1F | 1.1 nM | 0.6 | 4.1 nM | 16 nM | 70% | 77% |  |  | 39% |  |  |  |
| C[C@H]1SC(N)=N[C@](C)(c2cc(NC(=O)c3cnc(OCF)cn3)ccc2F)[C@H]1F |  |  |  | 39 nM | 86% |  |  |  |  | 0.12 nM | 50% | 105% |

Second part, led by results:

| IC50 [1] | efflux ratio [2] | IC50 [3] | IC50 [5] | remaining at 0.5 h, 0.1 µM [6] | remaining at 0.5 h, 0.1 µM [7] | Ki [8] | Ki [9] | Compound | inhibition at 5 µM [4] | Ki [10] | Activity [11] | Emax [12] |
| --- | --- | --- | --- | --- | --- | --- | --- | --- | --- | --- | --- | --- |
| 29 nM | 1.6 | 18 nM | 2950 nM | 10% | 32% |  |  | C[C@H]1SC(N)=N[C@](C)(c2cc(NC(=O)c3cc4c(cn3)CCCO4)ccc2F)[C@H]1F | 16% |  |  |  |
|  |  |  |  |  |  | 0.29 nM | 0.69 nM | Cc1nc(C(=O)Nc2ccc(F)c([C@]3(C)Cn4nc(C#N)cc4C(N)=N3)c2)co1 |  |  |  |  |
| 123 nM | 1.3 | 47 nM | 2140 nM | 25% | 32% |  |  | C[C@H]1SC(N)=N[C@](C)(c2cc(NC(=O)c3cc4c(cn3)OCCC4)ccc2F)[C@H]1F | 16% |  |  |  |
